# Data reported in US20090325952A1, “PYRAZOLO[3,4-B]PYRIDINE COMPOUNDS, AND THEIR USE AS PDE4 INHIBITORS” (Glaxo Group Limited, priority 2006, published 2009).
# Counter-ions that a name gives are not always drawn.
# System: TNF-α (TNF-alpha) production in human PBMC (peripheral blood mononuclear cells)
# Experiment: Inhibition of TNF-alpha production in human PBMC assay (MSD technology)
# Type: cell-based
# Conditions: Homo sapiens, PBMC, LPS stimulated, measured and/or mean of n measurements, read-out: PBMC pIC50 (MSD assay), inhibition of TNF-α production (converted)
# Method: A 96-well plate (96 MicroWell™ Plates Nunclon™Δ-High Flange Design, Fisher Scientific UK, Bishop Meadow Road, Loughborough LE 11 5 RG, Leicestershire, UK) is prepared by initially adding to column 1 ca. 10 mM of test compound dissolved in DMSO. […] The compound is further diluted with DMSO into columns 2 to 9 by 8 successive 3-fold dilutions using the Biomek® FX Laboratory Automation Workstation (Beckman Coulter, Inc., 4300 N. Harbor Boulevard, P.O. Box 3100, Fullerton, Calif. 92834-3100, USA). Column 10 is used as a DMSO negative control (High Signal, 0% response), whilst column 11, which contains 10 mM of the PDE4 inhibitor roflumilast, is used as a positive control (Low Signal, 100% response). About 1 μl (about 1 ul) of compound is transferred to the compound plate using the Biomek® FX.
# PBMC cells (peripheral blood mononuclear cells) are prepared from heparinised human blood (using 1% v/v Heparin Sodium 10001 U/ml Endotoxin Free, Leo Laboratories Ltd., Cashel Road, Dublin 12. Ireland, Cat No: PL0043/0149) from normal volunteers using the Accuspin™ System-Histopaque®-1077 essentially (Sigma-Aldrich Company Ltd., The Old Brickyard New Rd, Gillingham, Dorset SP8 4XT, UK). About 20 ml of blood is overlaid onto 15 ml Histopaque® in Accuspin™ tubes. The tube is then centrifuged at about 800 g for ca. 20 minutes. The cells are collected from the interface, washed by centrifugation (ca. 1300 g, ca. 10 minutes) and resuspended in RPMI1640 medium (Low endotoxin RPMI1640 medium, Cat No: 31870-025, Invitrogen Corporation Invitrogen Ltd, 3 Fountain Drive, Inchinnan Business Park, Paisley PA4 9RF, UK) containing 10% foetal calf serum, 1% L-glutamine (Invitrogen Corporation, Cat No: 25030024) and 1% penicillin/streptomycin (Invitrogen Corporation, Cat No: 15140-122). Viable cells are counted by trypan blue staining and diluted to 1×10^6 viable cells/ml. About 50 μl (about 50 ul) of diluted cells and about 75 μl (about 75 ul) of LPS (ca. 1 ng/ml final; Sigma Cat No: L-6386) are added to the compound plate, which is then incubated at 37° C., 5% CO2, for 20 hours.
# The supernatant is removed and the concentrations of TNF-α are determined by electrochemiluminescence assay using the Meso Scale Discovery (MSD) technology (Meso Scale Discovery, 9238 Gaither Road, Gaithersburg, Md. 20877, USA). See the “TNF-α (TNF-alpha) MSD Assay” described below for typical details.
# For the following Examples, which are compounds of formula (I) or salts thereof, and generally when using the one of the above assays, or a generally similar or generally analogous assay, the measured and/or mean pIC50 values for inhibition of TNF-α (TNF-alpha) production in PBMCs are generally as follows (subject to a possibly-large variability or error):
# Using the Biomek FX, 25 μl (25 ul) of MSD Human Serum Cytokine Assay Diluent (Meso Scale Discovery, 9238 Gaither Road, Gaithersburg, Md. 20877) is added to a 96-well High-Bind MSD plate pre-coated with anti-hTNF alpha capture antibody (MA6000) and then incubated for 24 hours at 4° C. to prevent non-specific binding. About 20 μl (ul) of supernatant from the PBMC plate or about 40 μl (ul) of supernatant from the whole blood (WB) plate are then transferred from columns 1-11 to columns 1-11 of the MSD plate using the Biomek FX. About 20 μl (ul) of TNF-α standard (Cat No. 210-TA; R&D Systems Inc., 614 McKinley Place NE, Minneapolis, Minn. 55413, USA) are added to column 12 of the MSD plate to generate a standard calibration curve (about 0 to 30000 pg/ml final).
# For the Whole Blood assay, plates are washed after 2 hours shaking with a Skanwasher 300 version B (Skatron Instruments AS. PO Box 8, N-3401 Lier, Norway). About 40 μl (ul) of diluted sulfo-TAG antibody (ca. […] final) is added, the plates are shaken at room temperature for 1 hours, and the plates washed again as above. About 150 μl (ul) of Read Buffer T (2×) is added to the plates, which are then read on a MSD Sector 6000. […]
row,SMILES,IC50 [nM]
1,"CCc1nc2c(cnn2CC)c(NC2CCOCC2)c1CNC(=O)c1ccc(NC(=O)CCCCCCCN(C)CCO)cc1 [Example 1A1, N-{[1,6-Diethyl-4-(tetrahydro-2H-pyran-4-ylamino)-1H-pyrazolo[3,4-b]pyridin-5-yl]methyl}-4-({8-[(2-hydroxyethyl)(methyl)amino]octanoyl}amino)benzamide dihydrochloride]",~0.501
2,"CCc1nc2c(cnn2CC)c(NC2CCOCC2)c1CNC(=O)c1ccc(CCCCOCCCCN(C)CCO)cc1 [Example 19, formate salt of N-{[1,6-diethyl-4-(tetrahydro-2H-pyran-4-ylamino)-1H-pyrazolo[3,4-b]pyridin-5-yl]methyl}-4-[4-({4-[(2-hydroxyethyl)(methyl)amino]butyl}oxy)butyl]benzamide]",~0.251
3,"CCn1ncc2c(NC3CCOCC3)c(CNC(=O)c3ccc(NC(=O)CCCCCCCN(C)CCO)cc3)cnc21 [Example 26, Formate salt of N-{[1-ethyl-4-(tetrahydro-2H-pyran-4-ylamino)-1H-pyrazolo[3,4-b]pyridin-5-yl]methyl}-4-({8-[(2-hydroxyethyl)(methyl)amino]octanoyl}amino)benzamide]",~15.8

# Same assay, conditions: LPS stimulated, measured and/or mean of n measurements
row,SMILES,"PBMC pIC50 (MSD assay), inhibition of TNF-α production"
1,"CCc1nc2c(cnn2CC)c(NC2CCOCC2)c1CNC(=O)c1ccc(NC(=O)CCCCCCCN(C)CCO)cc1 [Example 1B, N-{[1,6-diethyl-4-(tetrahydro-2H-pyran-4-ylamino)-1H-pyrazolo[3,4-b]pyridin-5-yl]methyl}-4-({8-[(2-hydroxyethyl)(methyl)amino]octanoyl}amino)benzamide]",about 9.2 (n = 29)
2,"CCc1nc2c(cnn2CC)c(NC2CCN(C(N)=O)CC2)c1CNC(=O)c1ccc(NC(=O)CCCCCCCN(C)CCO)cc1.O=C(O)C(F)(F)F [Example 9, 4-({1,6-diethyl-5-[({[4-({8-[(2-hydroxyethyl)(methyl)amino]octanoyl}amino)phenyl]carbonyl}amino)methyl]-1H-pyrazolo[3,4-b]pyridin-4-yl}amino)-1-piperidinecarboxamide trifluoroacetate (salt)]",about 8.4 (n = 4)
3,"CCc1nc2c(cnn2CC)c(NC2CCN(C(N)=O)CC2)c1CNC(=O)c1ccc(CCCCOCCCCN2CCOCC2)cc1 [Example 23A, 4-({1,6-diethyl-5-[({[4-(4-{[4-(4-morpholinyl)butyl]oxy}butyl)phenyl]carbonyl}amino)methyl]-1H-pyrazolo[3,4-b]pyridin-4-yl}amino)-1-piperidinecarboxamide]",about 9.1 (n = 8)
